Data set [1] relates to MKL-2 cells (VP-MCC). Format: cell-based, human. On the procedure: (§1) A non-targeting control (Silencer Select Negative Control No. 2 siRNA) and a positive control (AllStars Cell Death Control siRNA) were used as controls. Lipofectamine RNAiMax (Thermo Fisher Scientific, Grand Island, NY) was obtained as the transfection reagent. […] Three siRNAs per gene were arrayed in 384 well plates, one siRNA per well. […] Cell viability was measured by CellTiter-Glo assay following the manufacturer's instructions (G7572; Promega, Madison, WI, USA) 96 h after siRNA transfection. Assay plates were measured using BMG Pherastar plate reader Three different siRNAs (sequences: [NT], and [NT] targeting INCENP as well as negative non-targeting siRNA control were purchased from Thermo Fisher Scientific (Grand Island, NY).

The test system of data set [2] is MCC26 cells (VN-MCC). In kind it is cell-based, human. On the procedure: as §1

On to “AGUCCUUUAUUAAGCGCAAtt (AGUCCUUUAUUAAGCGCAATT; chemistry not given here)”, for which the figures for the Percent viability in data set [1] and in data set [2] were 80.2% and 103.7%, respectively.

In the case of “CAAAGGAAACCAACAAUAAtt (CAAAGGAAACCAACAAUAATT; chemistry not given here)”, the Percent viability is listed as 80.7% in data set [1] and 87.6% in data set [2].

As for “GCAGGUUCCUUAUCUGUCAtt (GCAGGUUCCUUAUCUGUCATT; chemistry not given here)”, the Percent viability in data set [1] is recorded as 56.1%; in data set [2], 85.0%.

Take “GCUUGUACCUCAUAUCAGAtt (GCUUGUACCUCAUAUCAGATT; chemistry not given here)”: the Percent viability in data set [1] was found to be 48.4%; in data set [2], 90.4%.

“UAUUGUUGGUUUCCUUUGC (chemistry not given here)”: the figures for the Percent viability in data set [1] and in data set [2] were 92.8% and 96.2%, respectively.

For the substance “UGAAUGUAGAGAUGCGGUG (chemistry not given here)”, the Percent viability in data set [1] came to 74.1%; in data set [2], 98.4%.

Source of the values: paper PMC11822212, “High-throughput screening identifies Aurora kinase B as a critical therapeutic target for Merkel cell carcinoma” (Nature Communications, 2025).
